Assay results reported in PubChem BioAssay (NCI).
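Five concentrations, 48 hours, 96-well plates. TGI denotes the concentration required for complete inhibition of growth.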

Key:
Assay in all cases: DTP human tumour cell line panel, 48 h
[1] = test system: 786-0 renal
[2] = test system: A498 renal
[3] = test system: A549 NSCLC
[4] = test system: ACHN renal
[5] = test system: CCRF-CEM leukemia
[6] = test system: COLO 205 colon
[7] = test system: DLD-1 colon
[8] = test system: DMS 114 small cell lung
[9] = test system: DMS 273 small cell lung
[10] = test system: EKVX NSCLC
[11] = test system: HCC-2998 colon
[12] = test system: HCT-116 colon
[13] = test system: HCT-15 colon
[14] = test system: HL-60(TB) leukemia
[15] = test system: HOP-18 NSCLC
[16] = test system: HOP-62 NSCLC
[17] = test system: HOP-92 NSCLC
[18] = test system: HT29 colon
[19] = test system: IGROV1 ovarian
[20] = test system: K-562 leukemia
[21] = test system: KM12 colon
[22] = test system: KM20L2 colon
[23] = test system: LOX IMVI melanoma
[24] = test system: LXFL 529 NSCLC
[25] = test system: M14 melanoma
[26] = test system: M19-MEL melanoma
[27] = test system: MALME-3M melanoma
[28] = test system: MOLT-4 leukemia
[29] = test system: NCI-H226 lung
[30] = test system: NCI-H23 lung
[31] = test system: NCI-H460 lung
[32] = test system: NCI-H522 lung
[33] = test system: OVCAR-3 ovarian
[34] = test system: OVCAR-4 ovarian
[35] = test system: OVCAR-5 ovarian
[36] = test system: OVCAR-8 ovarian
[37] = test system: RPMI-8226 leukemia
[38] = test system: RXF 393 renal
[39] = test system: SF-268 CNS
[40] = test system: SF-295 CNS
[41] = test system: SF-539 CNS
[42] = test system: SK-MEL-2 melanoma
[43] = test system: SK-MEL-28 melanoma
[44] = test system: SK-MEL-5 melanoma
[45] = test system: SK-OV-3 ovarian
[46] = test system: SN12C renal
[47] = test system: SNB-19 CNS
[48] = test system: SNB-75 CNS
[49] = test system: SNB-78 CNS
[50] = test system: SR leukemia
[51] = test system: SW-620 colon
[52] = test system: TK-10 renal
[53] = test system: U251 CNS
[54] = test system: UACC-257 melanoma
[55] = test system: UACC-62 melanoma
[56] = test system: UO-31 renal
[57] = test system: XF 498 CNS
[58] = test system: CAKI-1 renal
[59] = test system: BT-549 breast
[60] = test system: DU-145 prostate
[61] = test system: HS 578T breast
[62] = test system: MCF7 breast
[63] = test system: MDA-MB-231 breast
[64] = test system: MDA-MB-435
[65] = test system: MDA-N
[66] = test system: NCI/ADR-RES ovarian
[67] = test system: PC-3 prostate
[68] = test system: T-47D breast

With `CCCCc1c2c(nc3c1CCCC3=O)C(=O)CCC2` the TGI [1] was over 100 µM, the TGI [2] was over 100 µM and the TGI [3] was over 100 µM. For the same compound, the TGI [4] was over 100 µM, the TGI [5] was over 100 µM and the TGI [6] was over 100 µM. It also gave a TGI [7] of over 100 µM, a TGI [8] of over 100 µM and a TGI [9] of over 100 µM. The TGI [10] was over 100 µM, the TGI [11] was over 100 µM and the TGI [12] was over 100 µM. It also gave a TGI [13] of over 100 µM, a TGI [14] of over 100 µM and a TGI [15] of over 100 µM. The TGI [16] was over 100 µM, the TGI [17] was over 100 µM and the TGI [18] was over 100 µM. It also gave a TGI [19] of over 100 µM, a TGI [20] of over 100 µM and a TGI [21] of over 100 µM. The TGI [22] was over 100 µM, the TGI [23] was over 100 µM and the TGI [24] was over 100 µM. The TGI [25] was over 100 µM, the TGI [26] was over 100 µM and the TGI [27] was over 100 µM. It also gave a TGI [28] of over 100 µM, a TGI [29] of over 100 µM and a TGI [30] of over 100 µM. It also gave a TGI [31] of over 100 µM, a TGI [32] of over 100 µM and a TGI [33] of over 100 µM. The TGI [34] was over 100 µM, the TGI [35] was over 100 µM and the TGI [36] was over 100 µM. It also gave a TGI [37] of over 100 µM, a TGI [38] of over 100 µM and a TGI [39] of over 100 µM. It also gave a TGI [40] of over 100 µM, a TGI [41] of over 100 µM and a TGI [42] of over 100 µM. It also gave a TGI [43] of over 100 µM, a TGI [44] of over 100 µM and a TGI [45] of over 100 µM. The TGI [46] was over 100 µM, the TGI [47] was over 100 µM and the TGI [48] was over 100 µM. It also gave a TGI [49] of over 100 µM, a TGI [50] of over 100 µM and a TGI [51] of over 100 µM. For the same compound, the TGI [52] was over 100 µM, the TGI [53] was over 100 µM and the TGI [54] was over 100 µM. It also gave a TGI [55] of over 100 µM, a TGI [56] of over 100 µM and a TGI [57] of over 100 µM.

`CNc1ccc(/C=C2\C=Cc3ccccc32)cc1` gave a TGI [1] of over 100 µM, a TGI [2] of 96.8 µM and a TGI [3] of over 100 µM. The TGI [4] was 54.5 µM, the TGI [58] was over 100 µM and the TGI [5] was over 100 µM. It also gave a TGI [6] of 33.3 µM, a TGI [7] of over 100 µM and a TGI [8] of 44.9 µM. The TGI [9] was 71.3 µM, the TGI [10] was 91.1 µM and the TGI [11] was 31.4 µM. The TGI [12] was over 100 µM, the TGI [13] was over 100 µM and the TGI [14] was over 100 µM. For the same compound, the TGI [15] was 55.2 µM, the TGI [16] was 53.7 µM and the TGI [17] was 50.9 µM. The TGI [18] was 38.4 µM, the TGI [19] was over 100 µM and the TGI [20] was over 100 µM. The TGI [21] was 26.4 µM, the TGI [22] was 35.8 µM and the TGI [23] was 24.5 µM. It also gave a TGI [24] of over 100 µM, a TGI [25] of 36.1 µM and a TGI [26] of over 100 µM. For the same compound, the TGI [28] was over 100 µM, the TGI [29] was 57.3 µM and the TGI [30] was 57.7 µM. It also gave a TGI [31] of 37.9 µM, a TGI [32] of 25.3 µM and a TGI [33] of 51.9 µM. It also gave a TGI [34] of over 100 µM, a TGI [35] of 45 µM and a TGI [36] of over 100 µM. The TGI [37] was over 100 µM, the TGI [38] was over 100 µM and the TGI [39] was over 100 µM. The TGI [40] was 99 µM, the TGI [41] was over 100 µM and the TGI [42] was 42 µM. For the same compound, the TGI [43] was over 100 µM, the TGI [44] was 54.3 µM and the TGI [45] was over 100 µM. It also gave a TGI [46] of over 100 µM, a TGI [47] of over 100 µM and a TGI [49] of over 100 µM. For the same compound, the TGI [50] was over 100 µM, the TGI [51] was over 100 µM and the TGI [52] was 54.6 µM. It also gave a TGI [53] of over 100 µM, a TGI [54] of over 100 µM and a TGI [55] of 71.9 µM. For the same compound, the TGI [56] was 30.5 µM and the TGI [57] was over 100 µM.

For `O=C1C=CC(=O)c2c(O)ccc(O)c21`, the TGI [1] was 2.55 µM, the TGI [2] was 7.78 µM and the TGI [3] was 33.1 µM. It also gave a TGI [4] of 2.67 µM, a TGI [59] of 4.8 µM and a TGI [58] of 2.82 µM. The TGI [5] was 0.966 µM, the TGI [6] was 1.66 µM and the TGI [7] was 0.891 µM. For the same compound, the TGI [8] was 5.27 µM, the TGI [9] was 7.55 µM and the TGI [60] was 28 µM. It also gave a TGI [10] of 7.4 µM, a TGI [11] of 10.5 µM and a TGI [12] of 2.39 µM. The TGI [13] was 1.65 µM, the TGI [14] was 0.831 µM and the TGI [15] was 2.17 µM. For the same compound, the TGI [16] was 19.3 µM, the TGI [17] was 3.21 µM and the TGI [61] was 6.57 µM. For the same compound, the TGI [18] was 5.68 µM, the TGI [19] was 15.5 µM and the TGI [20] was over 25 µM. The TGI [21] was 13 µM, the TGI [22] was 4.97 µM and the TGI [23] was 3.8 µM. The TGI [24] was 1.64 µM, the TGI [25] was 1.32 µM and the TGI [26] was 1.49 µM. The TGI [27] was 2.39 µM, the TGI [62] was 6.59 µM and the TGI [63] was 6.64 µM. It also gave a TGI [64] of 13.1 µM, a TGI [65] of 8.18 µM and a TGI [28] of 4.45 µM. It also gave a TGI [29] of 18.5 µM, a TGI [30] of 7.39 µM and a TGI [31] of 9.79 µM. For the same compound, the TGI [32] was 1.16 µM, the TGI [66] was 3.72 µM and the TGI [33] was 5.87 µM. It also gave a TGI [34] of 4.97 µM, a TGI [35] of 13.1 µM and a TGI [36] of 2.05 µM. For the same compound, the TGI [67] was 29.5 µM, the TGI [38] was 2.02 µM and the TGI [39] was 8.39 µM. It also gave a TGI [40] of 16.1 µM, a TGI [41] of 5.84 µM and a TGI [42] of 17.4 µM. For the same compound, the TGI [43] was 2.76 µM, the TGI [44] was 6.08 µM and the TGI [45] was 27.5 µM. The TGI [46] was 3.08 µM, the TGI [47] was 16.6 µM and the TGI [48] was 6.98 µM. The TGI [49] was 6.37 µM, the TGI [50] was 1.75 µM and the TGI [51] was 1.1 µM. It also gave a TGI [68] of 4.61 µM, a TGI [52] of 2.75 µM and a TGI [53] of 14.8 µM. The TGI [54] was 2.45 µM, the TGI [55] was 3.95 µM and the TGI [56] was 4.69 µM. For the same compound, the TGI [57] was 3.07 µM.
